Source: patent US20150237838A1, “REGULATION OF INSECT POPULATIONS” (CALIFORNIA INSTITUTE OF TECHNOLOGY, priority 2014, published 2015)

Key:
[1] = test system: genetically engineered insects containing both antibiotic resistance markers; assay: Sex selection of flies carrying combined vector (Opie2-tra-neo and Opie2-dsx-pac); format: in vivo, Drosophila
From the text: The expanded insect population containing both males and females was transferred to a diet supplemented with puromycin.

[2] = test system: Drosophila wild-type larvae; assay: Antibiotic toxicity test, wild-type larvae fed antibiotic-supplemented diet; format: in vivo, Drosophila melanogaster; details: for first instar death: larvae fed antibiotic-supplemented diet at around 1 mg/ml, n=10,000; for concentration at which antibiotic was highly toxic: wild-type larvae fed increasing amounts in diet
Experimental: As proof of principle, an embodiment of this system was developed for the fruit fly Drosophila melanogaster. As an initial test of antibiotic toxicity, Drosophila wild-type larvae were separately fed increasing amounts of either G418 or puromycin. Both antibiotics were highly toxic around 1 mg/ml such that when larvae were fed antibiotic-supplemented diet at this concentration, 100% first instar death was observed (n=10,000). Thus, these two antibiotics can be used as selection molecules in this system.

[3] = test system: Opie2-tra-neo expressing flies; assay: Sex selection of Opie2-tra-neo flies on G418 diet; format: in vivo, Drosophila melanogaster; details: diet with increasing concentrations of G418; at ~5 mg/ml; n=2,000
From the text: (§1) The possibility of utilizing the endogenous sex determination machinery to promote sex-specific antibiotic resistance-based selection was next tested. Sex-specific introns dsx and tra were incorporated into the coding frames of the antibiotic resistance genes pac and neo, respectively, and two types of flies were generated, one type expressing Opie2-tra-neo and another type expressing Opie2-dsx-pac. The dsx intron can be excised by splicing only in males and the tra intron can be excised by splicing only in females. This precise sex-specific splicing of these two introns is dictated by the sex determination machinery of the fly. […] The Opie2-tra-neo expressing flies were fed diet containing increasing concentrations of G418 resulting in 100% female progeny at ˜5 mg/ml (n=2,000). The Opie2-dsx-pac expressing flies were fed diet containing increasing concentrations of puromycin resulting in 100% male progeny at ˜2 mg/ml (n=500).

[4] = test system: Opie2-dsx-pac expressing flies; assay: Sex selection of Opie2-dsx-pac flies on puromycin diet; format: in vivo, Drosophila melanogaster; details: diet with increasing concentrations of puromycin; at ~2 mg/ml; n=500
From the text: as §1

[5] = test system: flies expressing Opie2-tra-pac; assay: Sex selection of Opie2-tra-pac flies on puromycin diet; format: in vivo, Drosophila melanogaster; details: larvae fed diet with increasing concentrations of puromycin; n=500
From the text: Thus, the sex specific introns can be interchangeably used with either antibiotic resistance genes to select for either males or females.

[6] = test system: transgenic flies expressing the pac gene; assay: Antibiotic diet fed to transgenic flies expressing pac gene; format: in vivo, Drosophila; details: diet with increasing concentrations of puromycin; pac under Opie2 promoter
From the text: To determine if the toxicity of puromycin and neomycin could be negated, antibiotic resistance genes pac and neo were used. Two types of transgenic flies were generated each expressing one type of antibiotic resistance gene under the control of the promoter Opie2. One type of transgenic fly expressed the pac gene and the other expressed the neo gene. Transgenic flies were fed a diet supplemented with increasing concentrations of either puromycin or G418, respectively. […] Additionally, these transgenic flies were quite healthy with high fitness. Thus, the pac and neo genes could be used to counter the toxicity of […], respectively.

insects = details: tetracycline in diet; Zeh et al., 2012; cited from earlier work

For `CN[C@@H]1[C@@H](O)[C@@H](O[C@@H]2[C@@H](O)[C@H](O[C@H]3O[C@H]([C@@H](C)O)[C@@H](O)[C@H](O)[C@H]3N)[C@@H](N)C[C@H]2N)OC[C@]1(C)O` [G418], the females selected ([1]; diet supplemented with increasing concentrations of G418 (FIG. 3)) was 100%, the first instar death [2] was 100% and the “concentration at which antibiotic was highly toxic” value [2] was “around 1 mg/ml”. The female progeny [3] was 100%.
For `COc1ccc(C[C@H](N)C(=O)N[C@H]2[C@@H](O)[C@H](n3cnc4c(N(C)C)ncnc43)O[C@@H]2CO)cc1` [puromycin], the males selected ([1]; diet supplemented with increasing concentrations of puromycin (FIG. 2)) was 100%, the “sex-selective killing of progeny” value ([1]; puromycin-supplemented diet, first instar larval stage) was “female progeny were selectively killed” and the male progeny [4] was 100%. The female progeny [5] was 100%, the first instar death [2] was 100% and the “concentration at which antibiotic was highly toxic” value [2] was “around 1 mg/ml”. The “toxicity of antibiotic in resistance-gene flies” value [6] was “negate the toxicity”.
In the case of `CN(C)[C@@H]1C(O)=C(C(N)=O)C(=O)[C@@]2(O)C(O)=C3C(=O)c4c(O)cccc4[C@@](C)(O)[C@H]3C[C@@H]12` [tetracycline], the “side effect on insects (fitness)” value (insects) is given as “large fitness cost”.
